row,Structure (SMILES),melting point
1,COC(=O)c1cc(C(C)(C)C)c(O[Si](C)(C)Oc2c(C(C)(C)C)cc(C(=O)OC)cc2C(C)(C)C)c(C(C)(C)C)c1,197 to 198 °C
2,CCOC(=O)C(CCc1ccccc1)NC(CCCCNC(=O)CNC(=O)OC(C)(C)C)C(=O)O (stereo not drawn),137 °C
3,CC(C)(C)C(O)C(=Cn1ccnc1)Oc1ccc(F)cc1 (stereo not drawn),112 to 113 °C
4,CC(CC(=O)NC(Cc1c[nH]c2ccccc12)C(=O)CCc1cc(C(F)(F)F)cc(C(F)(F)F)c1)c1ccccc1 (stereo not drawn),133 to 137 °C
5,O=C(O)CCCCCNC(=O)c1cc2cc3c(cc2c2cc(OCc4ccccc4)ccc12)OCO3,198 to 200 °C
6,COc1ccc(C2(CCO)C=CC=CN2)cc1OC1CCCC1 (stereo not drawn),94 to 96 °C
7,COc1ccc(C(=O)CCC(=O)N[C@@H](Cc2ccccc2)C(=O)O)cc1,131 to 133 °C
8,COc1ccc(N2CCN(c3c(C)c(C)c4c(c3C)C(Cc3ccccc3)C(C)(C)O4)CC2)cc1 (stereo not drawn),146 to 148 °C
9,CC1(C)CN(CC2Cc3nccnc3C2)c2nc(-c3ccncn3)cc(=O)n2C1,193 to 195 °C
10,O=C(O)CC1CN(Cc2ccc(Cl)c(Cc3ccccc3)c2Cl)C(=O)N(c2ccc(Br)cc2)C1 (stereo not drawn),174 to 176 °C
11,N#Cc1cccnc1N1CCN(CC(=O)Nc2ccccc2)CC1,110 to 112 °C
12,O=C(O)COc1cc(O)c2c(c1)NC1(CCCCC1)CC2=O,177 to 178 °C
13,Cc1cc(C(N)(C(F)(F)F)C(F)(F)F)cc(C)c1OCC(=O)O,138 °C
14,C=C1CCCCCCC(C(=O)OCC)NC1=O (stereo not drawn),91 to 92 °C
15,CC(C)(C)OC(=O)N1CCCN(c2c(F)c(F)nc(F)c2F)CC1,55 to 59 °C
16,COC(=O)Nc1nc(-c2ccccc2)c(-c2nc3ccccc3c(=O)n2-c2ccc(OC)cc2)s1,272 to 274 °C
17,O=C(c1ccccc1)c1c(Cl)cc2n1CCC2C(=O)O (stereo not drawn),190 °C
18,CC(C#CC1=C(C)C(O)C(O)C1(C)C)=CCO (stereo not drawn),121 to 122 °C
19,O=[N+]([O-])c1ccc(SCCn2cnnc2)cc1,162 to 165 °C
20,COc1ccc(CC(=O)NC(NC(=NC#N)Nc2c(F)cc(F)cc2F)C(C)(C)C)cc1OC (stereo not drawn),170 to 171 °C

row,Structure (SMILES),melting point
1,COC(=O)c1cnn2c(C(F)(F)F)cc(Cl)nc12,126 to 127 °C
2,O=C(N[C@H]1CC[C@H](CCN2CCN(c3nccc4c3OCC4)CC2)CC1)c1ccc(-c2cccnc2)cc1,235 °C
3,CCCCc1ccc(CCc2cc3c(s2)-n2c(C)nnc2CN=C3c2ccccc2Cl)cc1,119 to 121 °C
4,BrCCOc1ccsc1,46 °C
5,O=C(NC(CO)CO)c1cnccc1C(F)(F)F,155 to 156 °C
6,Cn1cc(-c2cc(-c3ccc4[nH]ncc4c3)ccn2)n(-c2ccc(C(C)(C)C#N)cc2)c1=O,165 °C
7,CCCCCCCCCCCCCN(O)C(=O)N(C)C,57 to 58 °C
8,CN(C)c1nc2sc3c(NCc4cccnc4)ncnc3c2c2c1CCC(C)(C)C2,208 to 209 °C
9,COc1ccc(N2CCN(c3ccc(N4C(=O)C5CCCCN5C4=O)cc3)CC2)cc1 (stereo not drawn),223 °C
10,CCCc1nc(N)nc(N)c1N1CCN(c2ccc(C(=O)N[C@@H](CCC(=O)O)C(=O)O)cc2)CC1,280 to 284 °C
11,CC1N=C(c2ccccc2)c2cc(Cl)ccc2NC1=S (stereo not drawn),250 °C
12,OCC1=CC=C(COc2cc(C(F)(F)F)ccc2Cl)SS1,94.2 to 96 °C
13,CON=Cc1ncn2c1CN(C)C(=O)c1c(Cl)cccc1-2,173 to 174 °C
14,CC1CC2(CC3CCC4C5CCC(=O)C5(C)CCC4C13C)OCCO2 (stereo not drawn),154 °C
15,COc1ccc2sc(C(N)=O)c(Sc3ccccc3)c2c1,194 to 196 °C
16,CCOC(=O)c1cc2c(ccc3nc(O)c(O)nc32)s1,357 °C
17,COCOc1cc(OC)c(OC)cc1-c1c(C(=O)OC)nnc(C(=O)OC)c1-c1ccc(OC)c(OC)c1,131 to 133 °C
18,CC1(CC(=O)O)CCc2ccccc2C1=O (stereo not drawn),114 to 116 °C
19,N#CN=CNC1c2ccccc2CC2CCCCC21 (stereo not drawn),145 to 165 °C
20,Clc1cc2nc(NCCCN3CCOCC3)c(-c3ccccn3)nc2cc1Cl,119 to 121 °C

row,Structure (SMILES),melting point
1,COc1cccc(OCc2cccc(OCc3ccc4ccccc4n3)c2)c1C(=O)O,149 to 152 °C
2,COc1ccc(CC(NC(=O)CNC(=O)OCc2ccccc2)C(=O)NC2C(C(=O)O)OC(n3cnc4c(NC(=O)c5ccccc5)ncnc43)C2O)cc1 (stereo not drawn),78 to 84 °C
3,O=C1N=C2C=CC=CN2C1(Cc1ccccc1)Cc1ccc(F)cc1 (stereo not drawn),> 300 °C
4,O=C(Nc1cccc([N+](=O)[O-])c1)NC1C(=O)N(CC23CC4CC(CC(C4)C2)C3)c2ccccc2N(c2ccccc2)C1=O (stereo not drawn),213 to 215 °C
5,Oc1ccc(-c2nc(-c3ccc(Br)cc3)nc(-c3ccc(O)cc3O)n2)c(O)c1,222 to 224 °C
6,CCCCN(Cc1ccc(C#N)cc1Cl)c1c(NC(C)(C)C)c(=O)c1=O,133 to 134 °C
7,O=C(Cc1ccccc1)c1cccc(OCc2ccccc2)c1,58 to 60 °C
8,O=c1c2cccc3c2c(cn1C1CN2CCC1CC2)CC3 (racemic),146 to 147 °C
9,CN(CC(=O)O)C(=S)c1cccc2c(Br)cccc12,181 °C
10,Cc1cncn1-c1cc(NC(=O)OC(C)(C)C)cc(C(F)(F)F)c1,169 to 171 °C
11,CCOC(=O)CCSC(CC)=NNC(N)=O,63.5 to 64.5 °C
12,Cn1nc(C(=O)O)nc1NCCCOc1cccc(CN2CCCCC2)c1,130 °C
13,O=C(OCc1ccccc1)N1CCC(O)(c2ccc(C(F)(F)F)cc2)CC1,102 °C
14,COc1cc(C(C)=O)ccc1OCCCCN1CCC(c2n[nH]c3cc(F)ccc23)CC1,158 to 160 °C
15,CCOC(=O)N1CCC(N(Cc2ccccc2)C(=S)Nc2ccccc2[N+](=O)[O-])CC1,140 °C
16,O=C1CC(C(O)(c2ccc(F)cc2)c2ccc(F)cc2)CN1Cc1ccccc1 (stereo not drawn),158 to 160 °C
17,COC(=O)c1c(-c2ccccc2)nc2c(c1N)c1c(n2Cc2ccc(OC)cc2)CCCC1,192 to 194 °C
18,CC(C)(C)OC(=O)C(F)=CC1C(C(=O)OC(C#N)c2ccc(F)c(Oc3ccccc3)c2)C1(C)C (stereo not drawn),122 °C
19,CC(C)c1cc(O)cc(C(C)C)c1NC(=O)CN1CCN(CCCSc2nc3ccccc3o2)CC1,201 to 203 °C
20,N#CC(C=CC=O)=C(c1ccc(F)cc1)c1ccc(F)cc1,155 to 156 °C

# The remaining lines, values ahead:
row,melting point,Structure (SMILES)
1,150 to 157 °C,Cc1noc(C)c1S(=O)(=O)Nc1ccc2c(c1)S(=O)(=O)C=C(c1c(O)c3cc(F)ccc3n(CCC3CC3)c1=O)N2
2,> 280 °C,Cc1nn(-c2ccccc2)c(O)c1-c1c(C)nn(-c2ccccc2)c1O
3,49 to 50 °C,COC(=O)COc1ccc(C(C)=O)c(C)c1
4,95 to 96 °C,Cc1ccc(S(=O)(=O)CCOc2ccccc2OCCS(=O)(=O)c2ccc(C)cc2)cc1
5,72 to 73 °C,CCOC(=O)c1ccc(N(C=O)Cc2ccc(Cl)cc2)cc1
6,228 to 230 °C,Nc1ncc(-c2cccc(Cl)c2Cl)c(Cl)n1
7,175 to 176 °C,Clc1ccc2c(c1)-c1[nH]ncc1CO2
8,117 to 118 °C,Clc1ccc(-c2cc[nH]c2)cc1
9,90 to 91 °C,Cc1oc(-c2ccccc2)nc1COc1cc(COc2ncccc2C=O)on1
10,196 °C,CC(=O)Nc1cccc(-n2nc(C#N)c(=O)n(Cc3ccc(Cl)cc3)c2=O)c1
11,168 to 169 °C,ON=Cc1c(-c2ccccc2Br)ccc2c1OCO2
12,94 to 95 °C,CCOC(=O)c1ccc(OCCCCCCCCCCCOc2ccc(Cl)cc2)cc1
13,165 to 166 °C,C=Cc1ccc(N2C[C@H](CNC(C)=O)OC2=O)cc1F
14,98 to 100 °C,O=S(=O)(Nc1ccc2c(OCc3ccc(-c4ccc(C(F)(F)F)cc4)cc3F)cccc2c1)C(F)(F)F
15,150 to 152 °C,CC1(C)C(=O)Oc2cc([N+](=O)[O-])c3ccc(Cn4cncn4)cc3c21
16,65 to 66 °C,Cc1nc(-c2ccccc2)ncc1CBr
17,152 to 153 °C,COC(=O)Nc1ccc(OCCn2ccnc2)cc1
18,63 to 89 °C,Cn1nc2c(-c3ccc(Cl)cc3Cl)cccc2c1-n1ccnc1
19,40 to 43 °C,O=S(=O)(Cl)c1cccc2c1COC2

row,melting point,Structure (SMILES)
1,102 to 103 °C,CCN(c1ccc(C#N)cc1[N+](=O)[O-])S(=O)(=O)c1ccc(Cl)s1
2,200 to 204 °C,COc1ccc(CSc2ccc([N+](=O)[O-])cc2C(=O)O)cc1
3,295 to 298 °C,Cc1ccc(C)c2c(=O)oc(=O)[nH]c12
4,110 °C,Cc1cc(-n2ccnc2)c2cccc(OCc3c(Cl)ccc(S(=O)(=O)N4CCC[C@H]4C(N)=O)c3Cl)c2n1
5,65 to 66.8 °C,COC(=O)COc1ccc(N)cc1
6,140 to 142 °C,CCOC(=O)C(=O)N1Cc2cc(OC)ccc2C(Cc2c(Cl)cncc2Cl)=N1
7,84 to 85 °C,CC(=O)OC1Oc2ccc(OS(C)(=O)=O)cc2C1(C)C (stereo not drawn)
8,82 to 85 °C,CC(c1cccnc1)N(c1ccc(F)cc1)S(C)(=O)=O (stereo not drawn)
9,172 to 173 °C,CCOC(=O)c1ccc(Nc2ncccc2NS(=O)(=O)c2ccc(OC)cc2)cc1
10,144 to 146 °C,O=[N+]([O-])c1cccc2c(Cl)ccnc12
11,284 °C,Cn1c(=O)c(-c2ccc(Cl)cc2Cl)cc2c3cc(C=O)ccc3n(C)c21
12,129 to 130 °C,CCNC=C(C(=O)C=Cc1ccc(N(C)C)cc1)C(=O)OC
13,248 to 250 °C,Cc1nc2ccc(NC(=O)COCc3ccccc3)cc2c(=O)n1C1CCC(=O)NC1=O (stereo not drawn)
14,245 to 247 °C,CCOc1ccc(NC=C(C#N)C(=O)Nc2cc(OC)c(Cl)cc2Cl)cc1F
15,225 °C,CC(=O)c1nc2cc(C(F)(F)F)c(Cl)cc2n1-c1ccc(CCNC(=O)NS(=O)(=O)c2ccc(C)cc2)cc1
16,262 °C,CCCC1=C(C#N)C(c2ccccc2Cl)c2c(n[nH]c2-c2ccccc2)N1 (stereo not drawn)
17,144 °C,Cc1noc(C)c1S(=O)(=O)Nc1ccc(Cl)cc1
18,110 to 112 °C,COc1ccc2c(c1)C(=O)C(Cc1cccc(N)c1)C(C)O2 (stereo not drawn)
19,195 to 197 °C,Cc1c(-c2ccccc2)[nH]c(N)c1C(N)=O
